Earlier results, collected in patent US6645994B1, “Method of treating dry eye disorders” (Alcon, Inc., priority 2001, dated 2003).

Experiments:
[1] = system: soluble goblet cell mucins (MUC2, MUC5AC); settings: literature report, Cornea 2000
mucin subtype MUC1 = settings: literature report, Cornea 2000
acyl-CoA synthetase = settings: compared with triacsins A, B and C

Compound	secretion of soluble goblet cell mucins (MUC2, MUC5AC) [1]	secretion of mucin subtype MUC1 (mucin subtype MUC1)	relative potency as acyl-CoA synthetase inhibitor among triacsins (acyl-CoA synthetase)
CCCCC[C@H](O)/C=C/C=C\C/C=C\C/C=C\CCCC(=O)O [15(S)-HETE]	inability of 15(S)-HETE to stimulate secretion	effective secretagogue	–
CC/C=C/C=C/C=C/C=C/C=NN=NO [Triacsin C, 1-hydroxy-3-(E,E,E,E-2′4′6′8′-undecatetraenylidine) triazene]	–	–	most potent of these compounds
